Measured values: patent US4134989A (Aziende Chimiche Riunite Angelini Francesco A.C.R.A.F. …, priority 1976, dated 1979)
Where two headings read alike, the source gives them in different places.

Tests used:
[1] = Hydrolysis of GIH in the presence of serum
[2] = in vivo; settings: rat, po
Method: Long-Evans rats of both sexes were used weighing 135-188 grams. The drugs were suspended in methyl-cellulose (0.5%) and given by gavage. Deaths were recorded during the two weeks following treatment. The LD50 was calculated according to Litchfield and Wilcoxon (1949).

[3] = system: cough produced by acrolein inhalation; experiment: Anti-tussive activity: cough produced by acrolein inhalation in guinea pigs (Silvestrini and Pozzatti); type: in vivo; settings: Cavia porcellus, acrolein-induced cough
Method: The test for the anti-tussive activity was done according to Silvestrini and Pozzatti (1960) […] B. and POZZATTI C., Anti-tussive activity and other pharmacological properties of six oxadiazoles. Arch. int. pharmacodyn. 129, 249-263, 1960. Since the details are given in this publication, it should only be recalled that the test is performed on guineapigs by using acrolein inhalation to produce cough. Male guinea pigs were used weighing 300-500 grams. The pharmacokinetic study was performed in Long-Evans rats of both sexes weighing 150 grams. […] The animals were sacrificed at […]

[4] = system: writhing reflexes induced by phenylquinone; experiment: Analgesic activity: writhing reflexes induced by phenylquinone (Hendershot and Forsaith); type: in vivo, Swiss mice
Excerpt: (§1) 3. Anti-inflammatory activity: In connection with the anti-inflammatory activity, both the anti-edema and analgesic activities were studied (namely, the ability to inhibit the painful response from inflamed tissues). The anti-edema activity was studied according to Winter et al. (1962). WINTER C. A., RISLEY E. A. and NUSS G. W., Carrageenin-induced edema in hind
The analgesic activity was studied according to Hendershot and Forsaith (1959). HENDERSHOT L. C. and FORSAITH J., Antagonism of the frequency of phenylquinone induced writhing in the mouse by weak analgesics and non-analgesics. J. Pharmacol. Exp. Ther. 125, 237-240, 1959. Swiss mice of both sexes weighing 18-22 grams were used.

[5] = system: intestine; settings: rat, in vivo, po
Method: (§2) Experiments were done in Long-Evans rats of both sexes weighing 150-190 grams. The drugs were suspended in methyl-cellulose (0.5%) and given by gavage. The animals were fasted during the 8 hours before treatment and were sacrificed 18 hours later. They were autopsied and gastrointestinal lesions were scored according to the score system described by Cioli et al. (1967).

[6] = system: carrageenin-induced paw edema; experiment: Anti-edema activity: carrageenin-induced paw edema in rats (Winter et al.); type: in vivo, Long-Evans rats; set-up: Reduction of edema: unit not given here; settings: for anti-inflammatory activity, comparison of the two drugs: carrageenin edema, rats, by gavage
Excerpt: as §1
paw of the rat as an assay for anti-inflammatory drugs. Proc. Soc. Exp. Biol. Med. 111, 544-547, 1962. […]

[7] = system: gastric mucosa; experiment: Gastrointestinal tolerance: ulcerogenic activity in the gastric mucosa of rats; type: in vivo, Long-Evans rats
Method: as §2

[8] = system: intestine; experiment: Gastrointestinal tolerance: ulcerogenic activity on the intestine of rats; settings: intestinal lesions, by gavage
Method: as §2

[9] = Hydrolysis of GIH in the presence of artificial gastric juices
[10] = Pharmacokinetic study: serum samples after oral administration to rats; type: in vivo, Long-Evans rats
Method: The test for the anti-tussive activity was done according to S[…]nd Pozzatti (1960) S[…]. and POZZATTI C., Anti-tussive activity and other pharmacological properties of six oxadiazoles. Arch. int. pharmacodyn. 129, 249-263, 1960. Since the details are given in this publication, it should only be recalled that the test is performed on guineapigs by using acrolein inhalation to produce cough. Male guinea pigs were used weighing 300-500 grams. The pharmacokinetic study was performed in Long-Evans rats of both sexes weighing 150 grams. […] The animals were sacrificed at
time intervals and serum samples were taken. […] MIZUTANI M. and NAITO S., Studies on absorption and excretion of drugs. XXIX. Biopharmaceutical studies on guaiacol glycerol ether and related compounds. I. Blood level of guaiacol glycerol ether in rabbit and its binding with serum proteins. Chem. Pharm. Bull. 15, 1422-1426, 1967. Moreoever, ibuprofen and guaiacol were dosed according to the methods of Kaiser and […] (1974) and Mizutani and Naito (1967), respectively. KAISER, D. G. and […]. J., GLC determination of ibuprofen [(+)-2-(p-isobutylphenyl)propionic acid] in plasma. J. Pharm. Sci. 63, 219-221, 1974. MIZUTANI M. and NAITO S., Studies on absorption and excretion of drugs. XXIX. Biopharmaceutical studies on guaiacol glycerol ether and related compounds. […]

COc1ccccc1OC(=O)C(C)c1ccc(CC(C)C)cc1 (stereo not shown) [GIH, guaiacol p-isobutyl hydratropate]
hydrolysis [1]: rapidly hydrolyzed into ibuprofen and guaiacol
LD50 at 336 h [2]: 1650 mg/kg
minimal effective dose ([3]; po): 25 mg/kg
% reduction in number of writhings ([4]; 1.9 mg/kg p.o.): 11%
% reduction in number of writhings ([4]; 3.8 mg/kg p.o.): 28%
% reduction in number of writhings ([4]; 7.5 mg/kg p.o.): 37%
% reduction in number of writhings ([4]; 15 mg/kg p.o.): 43%
% reduction in number of writhings ([4]; 30 mg/kg p.o.): 55%
% of rats with ulcers ([5]; 25 mg/kg): 0%
% of rats with ulcers ([5]; 38 mg/kg): 20%
% of rats with ulcers ([5]; 112 mg/kg): 33%
Reduction of edema ([6]; 1.9 mg/kg p.o., 2 hours): 22
Reduction of edema ([6]; 1.9 mg/kg p.o., 4 hours): 12
Reduction of edema ([6]; 1.9 mg/kg p.o., 6 hours): 1
Reduction of edema ([6]; 3.8 mg/kg p.o., 2 hours): 33
Reduction of edema ([6]; 3.8 mg/kg p.o., 4 hours): 26
Reduction of edema ([6]; 3.8 mg/kg p.o., 6 hours): 17
Reduction of edema ([6]; 7.5 mg/kg p.o., 2 hours): 41
Reduction of edema ([6]; 7.5 mg/kg p.o., 4 hours): 28
Reduction of edema ([6]; 7.5 mg/kg p.o., 6 hours): 27
Reduction of edema ([6]; 15 mg/kg p.o., 2 hours): 50
Reduction of edema ([6]; 15 mg/kg p.o., 4 hours): 45
Reduction of edema ([6]; 15 mg/kg p.o., 6 hours): 43
anti-inflammatory activity, comparison of the two drugs [6]: substantially the same anti-inflammatory activity
% of rats with ulcers ([7]; 25 mg/kg p.o.): 0%
% of rats with ulcers ([7]; 38 mg/kg p.o.): 10%
% of rats with ulcers ([7]; 112 mg/kg p.o.): 33%
effect on the gastric mucosa compared with ibuprofen ([7]; rats, by gavage): less toxic than ibuprofen
gastrointestinal toxicity compared with ibuprofen [8]: less toxic than ibuprofen
hydrolysis [9]: no hydrolysis occurs

CC(C)Cc1ccc(C(C)C(=O)O)cc1 (single isomer, unassigned; (+)) [Ibuprofen, (+)-2-(p-isobutylphenyl)propionic acid, reference compound]
LD50 at 336 h [2]: 640 mg/kg
% reduction in number of writhings ([4]; 5 mg/kg p.o.): 18%
% reduction in number of writhings ([4]; 10 mg/kg p.o.): 46%
% reduction in number of writhings ([4]; 20 mg/kg p.o.): 52%
% of rats with ulcers ([5]; 16 mg/kg): 0%
% of rats with ulcers ([5]; 25 mg/kg): 20%
% of rats with ulcers ([5]; 75 mg/kg): 63%
Reduction of edema ([6]; 2.5 mg/kg p.o., 2 hours): 17
Reduction of edema ([6]; 2.5 mg/kg p.o., 4 hours): 15
Reduction of edema ([6]; 2.5 mg/kg p.o., 6 hours): 3
Reduction of edema ([6]; 5 mg/kg p.o., 2 hours): 41
Reduction of edema ([6]; 5 mg/kg p.o., 4 hours): 31
Reduction of edema ([6]; 5 mg/kg p.o., 6 hours): 26
Reduction of edema ([6]; 10 mg/kg p.o., 2 hours): 57
Reduction of edema ([6]; 10 mg/kg p.o., 4 hours): 47
Reduction of edema ([6]; 10 mg/kg p.o., 6 hours): 36
anti-inflammatory activity, comparison of the two drugs [6]: substantially the same anti-inflammatory activity
% of rats with ulcers ([7]; 16 mg/kg p.o.): 11%
% of rats with ulcers ([7]; 25 mg/kg p.o.): 33%
% of rats with ulcers ([7]; 75 mg/kg p.o.): 43%
presence in serum samples of rats treated with GIH [10]: found in the serum samples

COc1ccc2c3c1O[C@H]1[C@@H](O)C=C[C@H]4[C@@H](C2)N(C)CC[C@@]341 [codein, reference compound]
minimal effective dose ([3]; ip): 2.5 mg/kg
